What all share (assay type): cell-based, human
One assay relates to HCT116 cells. Kind of assay: Screen 2: metabolic profiling with unlabeled amino acids (LC-MS). The conditions noted are these: 0.5, 1, 2 mM, dose-dependent, 6 hours. As to the method: Media was changed to QMAP plus individual amino acid treatments at the start of the experiment. 200 mM amino acid stocks were used to make the QMAP+individual amino acid treatment medias that were placed in the tissue culture incubator for 30-45 minutes prior to the start of the dosing for equilibration of media bicarbonate with incubator CO2. For metabolomic profiling experiments, cells were treated with additional amino acid doses of 0.5, 1 and 2 mM, and 1 mM was used for stable isotope tracing experiments. To minimize systematic error, each amino acid dose was added as a batch (20 amino acids+vehicle control) such that each well of each plate contained a different amino acid. The process was repeated for the other two concentrations of amino acids on the next plates to make set. This was repeated four more times to achieve the sample size of 5 replicates for each of the 3 doses of amino acids. Each plate was then incubated for 6 hours in the tissue culture incubator before being rapidly washed twice with sterile water and snap frozen on liquid nitrogen before being stored at −80° C. The next day, the plates were lyophilized for 90 minutes and then stored at −80° C.
Extraction buffer was prepared by adding 2:2:1 methanol: acetonitrile: water. For profiling, the following internal standards (Cambridge Isotope Laboratories) were added at 1 μg/mL each: L-Valine-D8, L-Aspartate (^13C4, D3, ^15N) and Succinate (13C4D4). 6-well plates were removed from storage at −80° C. and 1 ml of ice-cold extraction buffer was added. Plates were incubated at −20° C. for 5 minutes, scraped, transferred to microcentrifuge tubes and frozen in liquid nitrogen. Tubes were then placed into a sonicating water bath for 10 minutes and rotated at −20° C. for 1 hour before being centrifuged at 4° C. for 10 minutes at 21,000×g. […] of extract was dried down completely using a speed-vacuum (˜90 min), dissolved in […] of acetonitrile: water (1:1), vortexed for 10 min, and stored overnight at −20° C. to allow protein precipitation. Samples were then centrifuged at 4° C. for 10 minutes at 21,000×g and the supernatants were transferred into autosampler vials for analysis. For the QCs, […] of each extract was pooled, at the step prior to drying down, mixed and dried in […] amounts alongside the samples. Once dried, QCs were processed with the samples but recombined prior to being aliquoted into autosampler vials. All samples were then frozen at −80° C., and only one set of samples, which included a QC aliquot, was thawed, vortexed and placed into the instrument.
The sheath gas flow was set to 40 units, the auxiliary gas flow was set to 15 units and the sweep gas flow was set to 1 unit. […] For tracing, […] of sample was injected twice in either positive or negative mode to maximize detection efficiency and minimize metabolite crowding using the Sim-mode.
LC-MS data was processed using the Thermo Scientific TraceFinder 5.1 software.
The three cell lines were then treated with 0.5, 1, and 2 mM of individual, unlabeled amino acids, and metabolic profiling was performed to determine how individual amino acids quantitatively altered metabolite abundance (Screen 2).

In a further assay the test system is 293T. Kind of assay: CellTiter-Glo Luminescent Cell Viability Assay. The conditions noted are these: 2 mM, 24 hours, DMEM. The method, then: (§1) HT29, 293T, U2OS, and 3T3-LI cells were plated on an opaque 96-well plate in 1:1 DMEM. […] At the appropriate time point, 100 μl of CellTiter-Glo reagent (Promega #G7570) was added to each well. The plate was gently mixed for 2 minutes to induce lysis, incubated at room-temperature for 10 minutes, and then luminescence was measured.
(§2) To test whether tryptophan inhibition of growth applied to other cell lines and persisted in conventional cell culture media, two human cancer cell lines (HT29, U2OS), a transformed human embryonic kidney cell line (293T), and a mouse, fibroblast-like cell line (3T3-L1) were grown in DMEM for 24 hours and then treated with 2 mM tryptophan or vehicle. After 24 hours, cells were assayed by CellTiter-Glo, which indicates cell viability by measuring ATP production.

In the next assay the test system is HT29. Briefly: CellTiter-Glo Luminescent Cell Viability Assay. Particulars: 2 mM, 24 hours, DMEM. The method, then: as §1, §2

Data on 1 compound can be found in US20250019644A1, “Quantitatively Mapping Amino Acid Properties (QMAP) Cell Culture Media” (UNIVERSITY OF IOWA RESEARCH FOUNDATION, priority 2023, published 2025).

In the case of `N[C@@H](Cc1c[nH]c2ccccc12)C(=O)O` [tryptophan, L-tryptophan], in the assay with HCT116 cells, the “distal TCA cycle metabolite levels (alpha-ketoglutarate to malate)” value is listed as “decreased” and the glutamine levels result was “increased”. Besides, the “cell viability compared to vehicle” value in the assay on 293T is listed as “significant decreases”. Besides, the “cell viability compared to vehicle” value in the assay with HT29 was “significant decreases”.
